Measured values taken from patent US20170334899A1, “AMINO-SUBSTITUTED ISOTHIAZOLES” (Bayer Pharma Aktiengesellschaft, priority 2014, published 2017).
“And” between values parts separate entries of the source, which are not always exact repeats. Identical values can stand only once.

The molecules below were run against T1, human kinase Mps-1 (Homo sapiens, UniProt P33981) (assay: Mps-1 kinase assay (TR-FRET)). Conditions: Mps-1 TR-FRET kinase assay; avg; read-out: Mps1 avg (IC50 [mol/l]).
T1 construct: N-terminally GST-tagged human full length recombinant Mps-1 kinase; GST (N); purchased Invitrogen, Karslruhe, Germany PV4071
T1 sequence (P33981 1-857): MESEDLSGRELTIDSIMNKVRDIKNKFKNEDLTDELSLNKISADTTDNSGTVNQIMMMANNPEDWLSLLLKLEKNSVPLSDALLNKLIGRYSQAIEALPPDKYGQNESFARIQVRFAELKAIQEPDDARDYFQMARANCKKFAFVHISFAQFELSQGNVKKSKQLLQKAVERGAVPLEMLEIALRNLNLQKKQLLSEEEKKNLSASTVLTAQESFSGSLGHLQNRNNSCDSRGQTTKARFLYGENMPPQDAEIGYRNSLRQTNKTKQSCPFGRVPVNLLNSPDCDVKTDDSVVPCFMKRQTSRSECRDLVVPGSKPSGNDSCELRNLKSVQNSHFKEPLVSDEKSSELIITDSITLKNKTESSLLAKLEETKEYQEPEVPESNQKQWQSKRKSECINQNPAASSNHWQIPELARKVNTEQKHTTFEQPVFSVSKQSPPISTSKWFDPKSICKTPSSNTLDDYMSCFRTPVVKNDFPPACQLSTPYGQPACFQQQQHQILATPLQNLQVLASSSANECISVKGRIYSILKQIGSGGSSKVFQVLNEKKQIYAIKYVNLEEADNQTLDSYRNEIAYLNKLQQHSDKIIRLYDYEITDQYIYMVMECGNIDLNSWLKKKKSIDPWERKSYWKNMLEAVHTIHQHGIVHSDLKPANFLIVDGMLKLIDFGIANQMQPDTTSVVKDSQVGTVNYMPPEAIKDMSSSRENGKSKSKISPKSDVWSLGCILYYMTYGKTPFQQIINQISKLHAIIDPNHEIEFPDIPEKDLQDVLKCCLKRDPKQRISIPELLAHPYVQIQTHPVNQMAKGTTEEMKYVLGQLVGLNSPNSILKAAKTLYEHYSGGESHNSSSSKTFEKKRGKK
Assay type: biochemical
Outline: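 Inhibition normalised between uninhibited reaction (0%) and enzyme-free wells (100%), using the blank-corrected TR-FRET 665/620 nm ratio after EDTA stop. Reaction: ~0.5 nM GST-Mps-1 full length, 10 μM ATP, 1 μM biotin-peptide, 60 min at 22 °C, after 15 min compound pre-binding, pH 7.7.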

Point of comparison: `Cc1nsc(Nc2cnc3ccccc3n2)c1C(=O)Nc1cccc(C(=O)N2CCOCC2)c1` [Example 52, 3-Methyl-N-[3-(morpholin-4-ylcarbonyl)phenyl]-5-(quinoxalin-2-ylamino)-1,2-thiazole-4-carboxamide], IC50 18 µM. Against it:
- Cc1nsc(Nc2cnc(C(F)(F)F)cn2)c1C(=O)Nc1ccc(F)c(OCC2CCN(CC(F)(F)F)C2)c1 (centres unmarked) [Example 318, N-(4-fluoro-3-{[1-(2,2,2-trifluoroethyl)pyrrolidin-3-yl]methoxy}phenyl)-3-methyl-5-{[5-(trifluoromethyl)pyrazin-2-yl]amino}-1,2-thiazole-4-carboxamide] — higher, > 20 µM
- Cc1nsc(Nc2cnccn2)c1C(=O)Nc1ccc(OCCCNC(=O)OC(C)(C)C)nc1 [Example 47, tert-Butyl (3-{[5-({[3-methyl-5-(pyrazin-2-ylamino)-1,2-thiazol-4-yl]carbonyl}-amino)pyridin-2-yl]oxy}propyl)carbamate] — higher, ≥ 20 µM
- CCN1CCC(Oc2ccc(NC(=O)c3c(C)nsc3Nc3cnc(C(F)(F)F)cn3)cn2)C(F)(F)C1 (centres unmarked) [Example 406, N-{6-[(1-Ethyl-3,3-difluoropiperidin-4-yl)oxy]pyridin-3-yl}-3-methyl-5-{[5-(trifluoromethyl)pyrazin-2-yl]amino}-1,2-thiazole-4-carboxamide] — higher, > 20 µM
- Cc1nsc(Nc2ccc(C#N)cn2)c1C(=O)Nc1ccc(OC2CCCN(CC(F)F)C2)nc1 (centres unmarked) [Example 39, 5-[(5-Cyanopyridin-2-yl)amino]-N-(6-{[1-(2,2-difluoroethyl)piperidin-3-yl]oxy}-pyridin-3-yl)-3-methyl-1,2-thiazole-4-carboxamide] — higher, ≥ 20 µM
- Cc1nsc(Nc2cncc(C(F)(F)F)n2)c1C(=O)Nc1ccc(OCCN(C)C(=O)OC(C)(C)C)nc1 [Example 430, tert-Butyl methyl{2-[(5-{[(3-methyl-5-{[6-(trifluoromethyl)pyrazin-2-yl]amino}-1,2-thiazol-4-yl)carbonyl]amino}pyridin-2-yl)oxy]ethyl}carbannate] — higher, > 20 µM
- Cc1nsc(Nc2cnc(C(F)(F)F)cn2)c1C(=O)Nc1ccc(OCCNC(=O)C(F)(F)F)nc1 [Example 425, 3-Methyl-N-(6-{2-[(trifluoroacetyl)amino]ethoxy}pyridin-3-yl)-5-{[5-(trifluoro-methyl)pyrazin-2-yl]amino}-1,2-thiazole-4-carboxamide] — higher, ≥ 20 µM
- Cc1nsc(Nc2cnc(C(F)(F)F)cn2)c1C(=O)Nc1ccc(F)c(OCCCNC(=O)C(F)(F)F)c1 [Example 427, N-(4-Fluoro-3-{3-[(trifluoroacetyl)amino]propoxy}phenyl)-3-methyl-5-{[5-(trifluoro-methyl)pyrazin-2-yl]amino}-1,2-thiazole-4-carboxamide] — higher, ≥ 20 µM
- Cc1nsc(Nc2ccc(C#N)cn2)c1C(=O)Nc1ccc(OC2CCCNC2)nc1 (centres unmarked) [Example 37, 5-[(5-Cyanopyridin-2-yl)amino]-3-methyl-N-[6-(piperidin-3-yloxy)pyridin-3-yl]-1,2-thiazole-4-carboxamide] — higher, ≥ 20 µM
- Cc1nsc(Nc2cnc(C(F)(F)F)cn2)c1C(=O)Nc1ccc(OC2CCN(C(=O)OC(C)(C)C)CC2)nc1 [Example 5, tert-Butyl 4-[(5-{[(3-methyl-5-{[5-(trifluoromethyl)pyrazin-2-yl]amino}-1,2-thiazol-4-yl)carbonyl]amino}pyridin-2-yl)oxy]piperidine-1-carboxylate] — higher, ≥ 20 µM
- Cc1nsc(Nc2ccc(C#N)cn2)c1C(=O)Nc1ccc(OC2CCCN(CCF)C2)nc1 (centres unmarked) [Example 38, 5-[(5-Cyanopyridin-2-yl)amino]-N-(6-{[1-(2-fluoroethyl)piperidin-3-yl]oxy}pyridin-3-yl)-3-methyl-1,2-thiazole-4-carboxamide] — higher, ≥ 20 µM
- Cc1nsc(Nc2cc(C#N)ccn2)c1C(=O)Nc1ccc(OCCCNCC(F)F)nc1 [Example 45, 5-[(4-Cyanopyridin-2-yl)amino]-N-(6-{3-[(2,2-difluoroethyl)amino]propoxy}pyridin-3-yl)-3-methyl-1,2-thiazole-4-carboxamide] — higher, ≥ 20 µM
- Cc1nsc(Nc2cnc3ccccc3n2)c1C(=O)Nc1cccc(NC(=O)C(F)(F)F)c1 [Example 432, 3-Methyl-5-(quinoxalin-2-ylamino)-N-{3-[(trifluoroacetyl)amino]phenyl}-1,2-thiazole-4-carboxamide] — higher, > 20 µM

In the case of `Cc1nsc(Nc2cnc3ccccc3n2)c1C(=O)Nc1ccc(NCCN(C)C(=O)OC(C)(C)C)nc1` [Example 434, tert-Butyl methyl(2-{[5-({[3-methyl-5-(quinoxalin-2-ylamino)-1,2-thiazol-4-yl]carbonyl}amino)pyridin-2-yl]amino}ethyl)carbamate], the IC50 is reported as > 20 µM and 19 µM.
